Assay results published in PubChem BioAssay AID1918938 (Molecular Pharmacology Branch, DTP, NCI, 2023).

Test system: 556581-035-R-J1-PDC complex spheroid viability
Assay: Anticancer human tumor 556581-035-R-J1-PDC patient-derived ovarian carcinoma cell line growth inhibition
Settings: for IC50: curve of first compound; for viability, T/C: stronger effect = lower value; active = viability on the fitted dose curve at most 10% of control; inactive = the rest
Procedure, shortened: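 Multicellular complex spheroids of tumor cells with human endothelial cells (HUVEC) and mesenchymal stem cells; the LSD1 inhibitor iadademstat was combined with standard-of-care or investigational agents. Top concentration at or near clinical Cmax, half-log dilutions; final DMSO ≤0.25%.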

[1] = second compound 0.1 µM, first compound 0.00949 µM
[2] = second compound 0.1 µM, first compound 0.03 µM
[3] = second compound 0.1 µM, first compound 0.0949 µM
[4] = second compound 0.1 µM, first compound 0.3 µM
[5] = second compound 0.316 µM, first compound 0.00949 µM
[6] = second compound 0.316 µM, first compound 0.03 µM
[7] = second compound 0.316 µM, first compound 0.0949 µM
[8] = second compound 0.316 µM, first compound 0.3 µM
[9] = second compound 1 µM, first compound 0.00949 µM
[10] = second compound 1 µM, first compound 0.03 µM
[11] = second compound 1 µM, first compound 0.0949 µM
[12] = second compound 1 µM, first compound 0.3 µM
[13] = second compound 3.16 µM, first compound 0.00949 µM
[14] = second compound 3.16 µM, first compound 0.03 µM
[15] = second compound 3.16 µM, first compound 0.0949 µM
[16] = second compound 3.16 µM, first compound 0.3 µM
[17] = second compound 10 µM, first compound 0.00949 µM
[18] = second compound 10 µM, first compound 0.03 µM
[19] = second compound 10 µM, first compound 0.0949 µM
[20] = second compound 10 µM, first compound 0.3 µM
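Note: spheroids exposed to agents for seven days.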
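Throughout, for viability, T/C: 100% = DMSO vehicle control wells.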

CCN(c1cc(-c2ccc(CN3CCOCC3)cc2)cc(C(=O)NCc2c(C)cc(C)[nH]c2=O)c1C)C1CCOCC1 + NC1CC1c1ccc(-c2cccc(O)c2)cc1
666 nM: IC50 (second compound 10 µM)
466 nM: IC50 (second compound 3.16 µM)
776 nM: IC50 (second compound 0.1 µM)
732 nM: IC50 (second compound 0.316 µM)
633 nM: IC50 (second compound 1 µM)
inactive: viability, T/C [1] 106% | viability, T/C [2] 92.2% | viability, T/C [3] 86.7% | viability, T/C [4] 73.4% | viability, T/C (second compound 0.1 µM, first compound 0.949 µM) 42.5% | viability, T/C (second compound 0.1 µM, first compound 3 µM) 25.1% | viability, T/C [5] 105% | viability, T/C [6] 95.5% | viability, T/C [7] 78.5% | viability, T/C [8] 69.3% | viability, T/C (second compound 0.316 µM, first compound 0.949 µM) 42.7% | viability, T/C (second compound 0.316 µM, first compound 3 µM) 27.4% | viability, T/C [9] 94.2% | viability, T/C [10] 84.7% | viability, T/C [11] 84.8% | viability, T/C [12] 66.8% | viability, T/C (second compound 1 µM, first compound 0.949 µM) 40.5% | viability, T/C (second compound 1 µM, first compound 3 µM) 30.5% | viability, T/C [13] 98.7% | viability, T/C [14] 102% | viability, T/C [15] 78% | viability, T/C [16] 58.1% | viability, T/C (second compound 3.16 µM, first compound 0.949 µM) 39.4% | viability, T/C (second compound 3.16 µM, first compound 3 µM) 32.5% | viability, T/C [17] 83.6% | viability, T/C [18] 87.7% | viability, T/C [19] 82.1% | viability, T/C [20] 63.6% | viability, T/C (second compound 10 µM, first compound 0.949 µM) 44.6% | viability, T/C (second compound 10 µM, first compound 3 µM) 30.6%

Cn1ncnc1C1c2n[nH]c(=O)c3cc(F)cc(c23)NC1c1ccc(F)cc1 (stereo not given) + NC1CC1c1ccc(-c2cccc(O)c2)cc1
inactive: viability, T/C (second compound 0.1 µM, first compound 0.000316 µM) 90.1% | viability, T/C (second compound 0.1 µM, first compound 0.001 µM) 89.6% | viability, T/C (second compound 0.1 µM, first compound 0.00316 µM) 87.5% | viability, T/C (second compound 0.1 µM, first compound 0.01 µM) 88.7% | viability, T/C (second compound 0.1 µM, first compound 0.0316 µM) 96.2% | viability, T/C (second compound 0.1 µM, first compound 0.1 µM) 81.4% | viability, T/C (second compound 0.316 µM, first compound 0.000316 µM) 89.6% | viability, T/C (second compound 0.316 µM, first compound 0.001 µM) 98.1% | viability, T/C (second compound 0.316 µM, first compound 0.00316 µM) 80.3% | viability, T/C (second compound 0.316 µM, first compound 0.01 µM) 84.9% | viability, T/C (second compound 0.316 µM, first compound 0.0316 µM) 94.5% | viability, T/C (second compound 0.316 µM, first compound 0.1 µM) 74.1% | viability, T/C (second compound 1 µM, first compound 0.000316 µM) 82.8% | viability, T/C (second compound 1 µM, first compound 0.001 µM) 88.5% | viability, T/C (second compound 1 µM, first compound 0.00316 µM) 109% | viability, T/C (second compound 1 µM, first compound 0.01 µM) 81.6% | viability, T/C (second compound 1 µM, first compound 0.0316 µM) 87% | viability, T/C (second compound 1 µM, first compound 0.1 µM) 81.8% | viability, T/C (second compound 3.16 µM, first compound 0.000316 µM) 94.4% | viability, T/C (second compound 3.16 µM, first compound 0.001 µM) 90% | viability, T/C (second compound 3.16 µM, first compound 0.00316 µM) 81.5% | viability, T/C (second compound 3.16 µM, first compound 0.01 µM) 80.5% | viability, T/C (second compound 3.16 µM, first compound 0.0316 µM) 77.7% | viability, T/C (second compound 3.16 µM, first compound 0.1 µM) 91.6% | viability, T/C (second compound 10 µM, first compound 0.000316 µM) 86.8% | viability, T/C (second compound 10 µM, first compound 0.001 µM) 83.2% | viability, T/C (second compound 10 µM, first compound 0.00316 µM) 86.5% | viability, T/C (second compound 10 µM, first compound 0.01 µM) 87.2% | viability, T/C (second compound 10 µM, first compound 0.0316 µM) 75.3% | viability, T/C (second compound 10 µM, first compound 0.1 µM) 88.2%
> 100 nM: IC50 (second compound 0.1 µM) | IC50 (second compound 0.316 µM) | IC50 (second compound 1 µM) | IC50 (second compound 3.16 µM) | IC50 (second compound 10 µM)

Nc1ncn(C2CC(O)C(CO)S2)c(=O)n1 (stereo not given) + NC1CC1c1ccc(-c2cccc(O)c2)cc1
37.5 nM: IC50 (second compound 0.1 µM)
28.8 nM: IC50 (second compound 10 µM)
33.1 nM: IC50 (second compound 0.316 µM)
34.7 nM: IC50 (second compound 1 µM)
inactive: viability, T/C (second compound 0.1 µM, first compound 0.000949 µM) 86.7% | viability, T/C (second compound 0.1 µM, first compound 0.003 µM) 84.5% | viability, T/C [1] 78.2% | viability, T/C [2] 52% | viability, T/C [3] 34.1% | viability, T/C [4] 20.6% | viability, T/C (second compound 0.316 µM, first compound 0.000949 µM) 85.9% | viability, T/C (second compound 0.316 µM, first compound 0.003 µM) 80% | viability, T/C [5] 88.1% | viability, T/C [6] 52.4% | viability, T/C [7] 27.9% | viability, T/C [8] 22.4% | viability, T/C (second compound 1 µM, first compound 0.000949 µM) 80.5% | viability, T/C (second compound 1 µM, first compound 0.003 µM) 83.5% | viability, T/C [9] 70% | viability, T/C [10] 54.1% | viability, T/C [11] 30.8% | viability, T/C [12] 24% | viability, T/C (second compound 3.16 µM, first compound 0.000949 µM) 88.7% | viability, T/C (second compound 3.16 µM, first compound 0.003 µM) 93.6% | viability, T/C [13] 73.7% | viability, T/C [14] 52.6% | viability, T/C [15] 33.1% | viability, T/C [16] 25.4% | viability, T/C (second compound 10 µM, first compound 0.000949 µM) 82.2% | viability, T/C (second compound 10 µM, first compound 0.003 µM) 79.7% | viability, T/C [17] 65.4% | viability, T/C [18] 52% | viability, T/C [19] 32.1% | viability, T/C [20] 29.9%
33.7 nM: IC50 (second compound 3.16 µM)
